Legend:
[1] = system: human coronary artery endothelial cells; conditions: 20 ng/mL; cited from earlier work
hTERT HAEC = test: NO production by hTERT HAEC in 3D scaffolds (conditioned media, Seivers NO analyzer); format: cell-based, human; conditions: 1 μM, 30 minutes; HAEC growing 2 months in 3D scaffolds
Experimental: Endothelial cells have many functions including the production of nitric oxide (NO). NO is a vasoactive agent important for modulating the vascular smooth muscle tone (Davidge, S. T., et al., Circ Res 1995, 77 (2), 274-83). The confluent cells growing for 2 months in the tubes were tested for NO production to determine endothelial function and viability. To qualitatively assess the NO production, 50 μL of the conditioned-media was analyzed using Seivers NO analyzer. FIGS. 13A-13C show NO production by hTERT HAEC with and without calcium ionophore stimulation. A 7- to 35-fold increase of NO was observed when HAEC growing in 3D scaffolds was stimulated with 1 μM A23187 calcium ionophore for 30 minutes. Others have reported twofold NO increase after 60-minute incubation of HAEC in 1 μM ionomycin grown on well plates (Cosentino, F., et al., Circulation 1997, 96 (1), 25-8). Using bovine coronary microvascular endothelial cells, a 3-fold increase was observed when stimulated with 1 μM A23187 calcium ionophore for 5 hours (Davidge, S. T., et al., Circ Res 1995, 77 (2), 274-83). […] There is difficulty in direct comparison of results with reported observations due to differences in methodology, analysis, and cell types. […] The higher increase in NO production warrants further investigation if 3D geometry affects HAEC NO production. […]

[2] = system: bovine coronary microvascular endothelial cells; conditions: 1 μM, 5 hours; cited from earlier work
HPASMC = test: Contractility of aligned HPASMC on microwrinkled PDMS; format: cell-based, human; conditions: 1 μM, 10 minutes
Experimental: HPASMC cultivated on microwrinkled PDMS were treated with angiotensin ii (1 μM) and serial phase images were taken (1, 3, 10 minutes, from left to right) to assess cell contraction. […] Scale bar=50 μm.
A 6 μm PDMS film was stretched by 20% with a uniaxial stretching system, followed by exposure to oxygen plasma (Plasma Etcher Inc.) at 80 W for 60 minutes to generate wrinkles (FIG. 1A-FIG. 1C and FIG. 16). […] To test the contractility of aligned HPASMC, HPASMC were exposed to angiotensin II (1 μM; Sigma Aldrich, St. Louis, Mo.) for 10 minutes. […] A more quantitative measurement of SMC contraction is employed as described in the Experimental Design section.

fibroblasts = conditions: 100 µM; cited from earlier work
HAEC = conditions: 1 μM, 60-minute incubation; HAEC on well plates; cited from earlier work
[3] = cited from earlier work

hepatocyte growth factor
NO increase [1]: twofold

CNc1ccc2oc(C[C@H]3O[C@@]4(CC[C@H]3C)O[C@H]([C@H](C)C(=O)c3ccc[nH]3)[C@H](C)C[C@H]4C)nc2c1C(=O)O [A23187]
increase of NO (hTERT HAEC): 7- to 35 fold
NO increase [2]: 3 fold

angiotensin II (DRVYIHPF; Angiotensin-2; UniProt P01019 25-32, looked up) [contractile agent (Sigma Aldrich)]
cell contraction of aligned HPASMC (HPASMC): time-dependent contraction

COc1ccccc1Oc1c(NS(=O)(=O)c2ccc(C(C)(C)C)cc2)nc(-c2ncccn2)nc1OCCO [Bosentan]
proliferation in fibroblasts (fibroblasts): altered
smooth muscle alpha actin expression in fibroblasts (fibroblasts): altered

C[C@H](CCC(=O)O)C[C@H](C)C[C@H](C)C(=O)/C=C(\O)[C@H](C)C[C@H](C)C/C=C/[C@@H](C)[C@@H](O)[C@@H](C)[C@@H](O)C[C@@H]1CC[C@@](C)([C@H]2CC[C@@](C)([C@@H](C)O)O2)O1 [ionomycin]
NO increase (HAEC): twofold

CCCCC[C@H](O)/C=C/[C@@H]1[C@H]2C/C(=C/CCCC(=O)O)O[C@H]2C[C@H]1O [Prostacyclin]
half-life [3]: 3 to 5 min

Source: patent publication US20210372995A1, “BIOMIMETIC PLATFORMS TO MODEL VASCULAR PATHOPHYSIOLOGY, DIAGNOSTICS, AND THERAPY” (The Johns Hopkins University, priority 2017, published 2021)
